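Abbreviation: GI50, concentration required for 50% inhibition of growth. At the TGI there is no net growth.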
Columns and labels:
Assay in all cases: growth of human tumour cells (NCI), 384-well format
SNB-75 CNS = test system: SNB-75 CNS
DU-145 prostate = test system: DU-145 prostate
SF-268 CNS = test system: SF-268 CNS
MDA-MB-468 breast = test system: MDA-MB-468 breast
CCRF-CEM leukemia = test system: CCRF-CEM leukemia
A498 renal = test system: A498 renal
HL-60(TB) leukemia = test system: HL-60(TB) leukemia
MCF7 breast = test system: MCF7 breast
T-47D breast = test system: T-47D breast
OVCAR-8 ovarian = test system: OVCAR-8 ovarian
HT29 colon = test system: HT29 colon
LOX IMVI melanoma = test system: LOX IMVI melanoma
HOP-62 NSCLC = test system: HOP-62 NSCLC

SMILES | GI50 (SNB-75 CNS) | TGI (SNB-75 CNS) | GI50 (DU-145 prostate) | TGI (DU-145 prostate) | GI50 (SF-268 CNS) | TGI (SF-268 CNS) | GI50 (MDA-MB-468 breast) | TGI (MDA-MB-468 breast) | GI50 (CCRF-CEM leukemia) | TGI (CCRF-CEM leukemia) | GI50 (A498 renal) | TGI (A498 renal) | GI50 (HL-60(TB) leukemia) | TGI (HL-60(TB) leukemia) | GI50 (MCF7 breast) | TGI (MCF7 breast) | GI50 (T-47D breast) | TGI (T-47D breast) | GI50 (OVCAR-8 ovarian) | TGI (OVCAR-8 ovarian) | further results
CS(=O)(=O)c1ccc(Oc2cc(F)cc(C#N)c2)c2c1[C@H](O)C(F)(F)C2 | > 100 µM | > 100 µM | > 100 µM | > 100 µM | > 100 µM | > 100 µM | > 100 µM | > 100 µM | > 100 µM | > 100 µM | > 100 µM | > 100 µM | > 66 µM | > 100 µM | > 100 µM | > 100 µM | > 100 µM | > 100 µM | > 100 µM | > 100 µM | GI50 (HT29 colon): > 100 µM; TGI (HT29 colon): > 100 µM; GI50 (LOX IMVI melanoma): > 100 µM; TGI (LOX IMVI melanoma): > 100 µM; GI50 (HOP-62 NSCLC): > 100 µM; TGI (HOP-62 NSCLC): > 100 µM
CC(C)n1c(=O)n(C)c2cnc3cc(F)c(-c4ccc(OCCCN5CCCCC5)nc4)cc3c21 | 20.6 µM | > 100 µM | > 89.7 µM | > 100 µM | 45.4 µM | > 100 µM | 24.8 µM | > 100 µM | 10.1 µM | > 46.7 µM | > 73.4 µM | > 100 µM | 11.8 µM | 47 µM | > 56.4 µM | > 100 µM | > 48.5 µM | > 100 µM | > 43.4 µM | > 100 µM | GI50 (HT29 colon): 22.3 µM; TGI (HT29 colon): > 87.2 µM; GI50 (LOX IMVI melanoma): 72.5 µM; TGI (LOX IMVI melanoma): > 100 µM; GI50 (HOP-62 NSCLC): > 33.2 µM; TGI (HOP-62 NSCLC): > 100 µM
